Measurements: patent US12534474B2, “Dihydrofuropyridine derivatives as rho-kinase inhibitors” (CHIESI FARMACEUTICI S.P.A., priority 2020, dated 2026)

Tests used:
Format in all cases: biochemical
ROCK1 [1] = target: T1, ROCK1 (Homo sapiens, UniProt Q13464); experiment: In vitro Rho kinase inhibitory activity assay, ADP-Glo, Method A (ATP 10 μM); details: read-out: Method A ROCK 1 (Ki)
Description: (§1) In Vitro Inhibitory Activity Assay Description (Method A)
(§2) The effectiveness of compounds of the present invention to inhibit Rho kinase activity can be determined in a 10 μL assay containing 40 mM Tris pH7.5, 20 mM MgCl2 0.1 mg/mL BSA, 50 μM DTT and 2.5 μM peptide substrate (Myelin Basic Protein) using an ADP-Glo kit (Promega). Compounds were dissolved in DMSO such that the final concentration of DMSO was 1% in the assay. All reactions/incubations are performed at 25° C. Compound (2 μL) and either Rho kinase 1 or 2 (4 μL) were mixed and incubated for 30 min. Reactions were initiated by addition of ATP (4 μL) such that the final concentration of ATP in the assay was 10 μM. After a 1 hour incubation 10 μL of ADP-Glo Reagent was added and after a further 45 minute incubation 20 μL of Kinase Detection Buffer was added and the mixture incubated for a further 30 minutes. The luminescent signal was measured on a luminometer. […] Compounds were tested in dose-response format and the inhibition of kinase activity was calculated at each concentration of compound. To determine the IC50 (concentration of compound required to inhibit 50% of the enzyme activity) data were fit to a plot of % inhibition vs Log10 compound concentration using a sigmoidal fit with a variable slope and fixing the maximum to 100% and the minimum to 0%. To determine the Ki values the Cheng-Prusoff equation was utilized (Ki=IC50/(1+[S]/Km).

ROCK2 [2] = target: T2, ROCK2 (Homo sapiens, UniProt O75116); experiment: as above; details: read-out: Method A ROCK 2 (Ki)
Description: as §1, §2

ROCK1 [3] = target: T1, ROCK1; experiment: In vitro Rho kinase inhibitory activity assay, ADP-Glo, Method B (ATP 200 μM); details: read-out: Method B ROCK 1 (Ki)
Description: (§3) In Vitro Inhibitory Activity Assay Description (Method B)
as §2, with “(2 ul)” for “(2 μL)”, “was 200” for “was 10”, “20 ul” for “20 μL”, “vs Log 10” for “vs Log10”

ROCK2 [4] = target: T2, ROCK2; experiment: as above; details: read-out: Method B ROCK 2 (Ki)
Description: as §3
as §2, with “(2 ul)” for “(2 μL)”, “was 200” for “was 10”, “20 ul” for “20 μL”, “vs Log 10” for “vs Log10”

PKA = PKA (Homo sapiens, UniProt P17612); experiment: In vitro inhibitory activity assay for PKA, ADP-Glo, reported as selectivity ratio vs ROCK2; details: Ki for PKA divided by Ki of ROCK2 (Method B)
Description: In Vitro Inhibitory Activity Assay Description for PKA
The effectiveness of compounds of the present invention to inhibit PKA activity can be determined in a 10 μL assay containing 40 mM Tris pH7.5, 20 mM MgCl2 0.1 mg/mL BSA, 50 μM DTT and 260 μM peptide substrate (kemptide) using an ADP-Glo kit (Promega). Compounds were dissolved in DMSO such that the final concentration of DMSO was 1% in the assay. All reactions/incubations are performed at 25° C. Compound and PKA enzyme (6 μL) were mixed and incubated for 30 min. Reactions were initiated by addition of ATP (4 μL) such that the final concentration of ATP in the assay was 10 μM. After a 30 minute incubation 10 μL of ADP-Glo Reagent was added and after a further 1 hour incubation 20 μL of Kinase Detection Buffer was added and the mixture incubated for a further 45 minutes. The luminescent signal was measured on a luminometer. […] Compounds were tested in dose-response format and the inhibition of kinase activity was calculated at each concentration of compound. To determine the IC50 (concentration of compound required to inhibit 50% of the enzyme activity) data were fit to a plot of % inhibition vs Log10 compound concentration using a sigmoidal fit with a variable slope and fixing the maximum to 100% and the minimum to 0%. To determine the Ki values the Cheng-Prusoff equation was utilized (Ki=IC50/(1+[S]/Km).
In vitro inhibitory activities for PKA were reported as selectivity ratio vs. ROCK2. Selectivity ratio PKA/ROCK2 was calculated by dividing the Ki value for PKA by Ki value of ROCK2 (Method B) and reported into table 1.

T2 sequence (O75116 whole entry): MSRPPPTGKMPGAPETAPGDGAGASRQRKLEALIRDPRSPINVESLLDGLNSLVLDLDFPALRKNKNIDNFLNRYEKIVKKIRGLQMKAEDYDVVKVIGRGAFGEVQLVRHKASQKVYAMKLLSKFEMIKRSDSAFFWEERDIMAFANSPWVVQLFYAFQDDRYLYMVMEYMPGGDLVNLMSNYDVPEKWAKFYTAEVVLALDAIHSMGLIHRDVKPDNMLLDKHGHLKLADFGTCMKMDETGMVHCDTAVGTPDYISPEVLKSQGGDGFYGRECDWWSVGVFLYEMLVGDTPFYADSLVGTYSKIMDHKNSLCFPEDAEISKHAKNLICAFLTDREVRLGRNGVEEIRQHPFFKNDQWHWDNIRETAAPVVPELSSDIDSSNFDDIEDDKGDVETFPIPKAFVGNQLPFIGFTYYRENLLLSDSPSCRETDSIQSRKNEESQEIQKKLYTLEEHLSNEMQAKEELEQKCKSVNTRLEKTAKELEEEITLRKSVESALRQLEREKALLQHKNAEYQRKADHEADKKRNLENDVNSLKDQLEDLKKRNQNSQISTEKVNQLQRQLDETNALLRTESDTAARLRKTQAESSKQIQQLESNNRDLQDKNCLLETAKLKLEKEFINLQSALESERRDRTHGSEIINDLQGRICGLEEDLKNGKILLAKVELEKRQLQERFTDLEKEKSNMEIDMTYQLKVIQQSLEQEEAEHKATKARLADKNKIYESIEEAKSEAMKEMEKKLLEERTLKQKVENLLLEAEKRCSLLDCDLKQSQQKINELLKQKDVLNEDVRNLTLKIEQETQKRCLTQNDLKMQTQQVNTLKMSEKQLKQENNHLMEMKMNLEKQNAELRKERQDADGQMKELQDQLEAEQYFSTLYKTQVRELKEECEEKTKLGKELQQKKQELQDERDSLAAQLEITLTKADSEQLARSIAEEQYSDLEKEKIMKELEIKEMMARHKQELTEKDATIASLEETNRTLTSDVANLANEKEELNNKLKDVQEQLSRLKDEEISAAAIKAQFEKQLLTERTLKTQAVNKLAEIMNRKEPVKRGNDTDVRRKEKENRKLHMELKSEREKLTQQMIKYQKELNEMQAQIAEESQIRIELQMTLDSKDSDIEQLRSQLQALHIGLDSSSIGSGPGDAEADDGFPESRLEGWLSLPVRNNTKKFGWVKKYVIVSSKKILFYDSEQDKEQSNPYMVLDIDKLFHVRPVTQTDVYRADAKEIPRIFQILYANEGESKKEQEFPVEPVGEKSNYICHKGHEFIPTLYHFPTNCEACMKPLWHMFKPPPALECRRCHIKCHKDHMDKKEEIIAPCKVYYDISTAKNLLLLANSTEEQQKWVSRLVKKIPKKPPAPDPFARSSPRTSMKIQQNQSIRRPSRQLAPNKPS
T1 sequence (Q13464 whole entry): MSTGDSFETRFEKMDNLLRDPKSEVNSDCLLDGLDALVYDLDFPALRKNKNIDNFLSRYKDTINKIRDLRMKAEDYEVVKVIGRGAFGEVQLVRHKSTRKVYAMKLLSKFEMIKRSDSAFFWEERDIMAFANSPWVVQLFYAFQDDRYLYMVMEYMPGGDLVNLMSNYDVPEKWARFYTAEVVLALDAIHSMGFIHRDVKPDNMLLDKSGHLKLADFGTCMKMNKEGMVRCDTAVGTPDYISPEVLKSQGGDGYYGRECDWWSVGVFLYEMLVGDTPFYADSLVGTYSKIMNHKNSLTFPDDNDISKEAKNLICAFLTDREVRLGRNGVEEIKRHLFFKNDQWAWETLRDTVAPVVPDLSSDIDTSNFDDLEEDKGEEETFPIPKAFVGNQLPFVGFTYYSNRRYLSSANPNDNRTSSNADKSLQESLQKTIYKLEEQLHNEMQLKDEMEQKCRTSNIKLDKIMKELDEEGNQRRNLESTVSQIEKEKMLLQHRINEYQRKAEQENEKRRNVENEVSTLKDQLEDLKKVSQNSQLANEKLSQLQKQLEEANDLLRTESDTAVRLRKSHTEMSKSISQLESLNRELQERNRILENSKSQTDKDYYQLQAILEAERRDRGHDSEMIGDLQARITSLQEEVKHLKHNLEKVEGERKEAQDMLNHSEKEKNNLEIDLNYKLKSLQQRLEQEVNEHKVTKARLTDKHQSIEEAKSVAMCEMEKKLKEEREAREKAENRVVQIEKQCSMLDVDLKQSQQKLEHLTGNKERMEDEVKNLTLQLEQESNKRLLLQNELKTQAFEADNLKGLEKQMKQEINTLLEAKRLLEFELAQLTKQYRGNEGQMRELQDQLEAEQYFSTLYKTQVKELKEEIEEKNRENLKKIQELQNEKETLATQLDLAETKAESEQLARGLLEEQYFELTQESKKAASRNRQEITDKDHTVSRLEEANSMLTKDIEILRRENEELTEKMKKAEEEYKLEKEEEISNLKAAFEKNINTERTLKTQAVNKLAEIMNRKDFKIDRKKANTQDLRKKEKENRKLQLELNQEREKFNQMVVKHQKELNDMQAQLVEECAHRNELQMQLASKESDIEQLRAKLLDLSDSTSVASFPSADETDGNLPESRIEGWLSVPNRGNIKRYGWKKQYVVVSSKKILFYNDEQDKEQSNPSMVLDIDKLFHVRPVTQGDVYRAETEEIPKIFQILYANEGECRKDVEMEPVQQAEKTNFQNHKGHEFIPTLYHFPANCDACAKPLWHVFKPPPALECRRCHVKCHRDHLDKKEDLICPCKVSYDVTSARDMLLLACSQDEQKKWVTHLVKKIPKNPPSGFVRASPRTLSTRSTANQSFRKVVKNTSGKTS

Row | Compound | Ki (ROCK1 [1]) [nM] | Ki (ROCK2 [2]) [nM] | Ki (ROCK1 [3]) [nM] | Ki (ROCK2 [4]) [nM] | Ratio (PKA/ROCK2) (PKA)
1 | CN1CCc2nc(NC(=O)c3cccc(CNc4ncc(-c5ccncc5)c5c4CCO5)c3)sc2C1 [Example 23, N-(5-methyl-4,5,6,7-tetrahydrothiazolo[5,4-c]pyridin-2-yl)-3-(((7-(pyridin-4-yl)-2,3-dihydrofuro[3,2-c]pyridin-4-yl)amino)methyl)benzamide] | ≤ 3 | ≤ 3 | – | – | –
2 | O=C(N[C@H](CO)c1ccccc1)c1cccc(CNc2ncc(-c3ccncc3)c3c2CCO3)c1 [Example 24, (S)-N-(2-hydroxy-1-phenylethyl)-3-(((7-(pyridin-4-yl)-2,3-dihydrofuro[3,2-c]pyridin-4-yl)amino)methyl)benzamide] | ≤ 3 | ≤ 3 | – | – | –
3 | O=C(NCCc1ccncc1)c1cccc(CNc2ncc(-c3ccncc3)c3c2CCO3)c1 [Example 25, 3-(((7-(Pyridin-4-yl)-2,3-dihydrofuro[3,2-c]pyridin-4-yl)amino)methyl)-N-(2-(pyridin-4-yl)ethyl)benzamide] | ≤ 3 | ≤ 3 | – | – | –
4 | CN(C)Cc1cccc(NC(=O)c2cccc(CNc3ncc(-c4ccncc4)c4c3CCO4)c2)c1 [Example 26, N-(3-((dimethylamino)methyl)phenyl)-3-(((7-(pyridin-4-yl)-2,3-dihydrofuro[3,2-c]pyridin-4-yl)amino)methyl)benzamide] | ≤ 3 | ≤ 3 | – | – | –
5 | CN(C)Cc1cccc(CNC(=O)c2cccc(CNc3ncc(-c4ccncc4)c4c3CCO4)c2)c1 [Example 27, N-(3-((dimethylamino)methyl)benzyl)-3-(((7-(pyridin-4-yl)-2,3-dihydrofuro[3,2-c]pyridin-4-yl)amino)methyl)benzamide] | ≤ 3 | ≤ 3 | – | – | –
6 | O=C(NCCc1cccnc1)c1cccc(CNc2ncc(-c3ccncc3)c3c2CCO3)c1 [Example 29, N-(2-(pyridin-3-yl)ethyl)-3-(((7-(pyridin-4-yl)-2,3-dihydrofuro[3,2-c]pyridin-4-yl)amino)methyl)benzamide] | ≤ 3 | ≤ 3 | – | – | –
7 | CC1CCN(CCC(=O)Nc2cccc(CNc3ncc(-c4ccncc4)c4c3CCO4)c2)CC1 [Example 32, 3-(4-Methylpiperidin-1-yl)-N-(3-(((7-(pyridin-4-yl)-2,3-dihydrofuro[3,2-c]pyridin-4-yl)amino)methyl)phenyl)propanamide] | 3 to 30 | 3 to 30 | – | – | –
8 | O=C(Nc1cccc(CNc2ncc(-c3ccncc3)c3c2CCO3)c1)c1cccc(CN2CCOCC2)c1 [Example 33, 3-(morpholinomethyl)-N-(3-(((7-(pyridin-4-yl)-2,3-dihydrofuro[3,2-c]pyridin-4-yl)amino)methyl)phenyl)benzamide] | 3 to 30 | 3 to 30 | – | – | –
9 | CN1CCc2nc(C(=O)Nc3cccc(CNc4ncc(-c5ccncc5)c5c4CCO5)c3)sc2C1 [Example 34, 5-methyl-N-(3-(((7-(pyridin-4-yl)-2,3-dihydrofuro[3,2-c]pyridin-4-yl)amino)methyl)phenyl)-4,5,6,7-tetrahydrothiazolo[5,4-c]pyridine-2-carboxamide] | ≤ 3 | ≤ 3 | – | – | –
10 | Cn1ncc2cc(C(=O)Nc3cccc(CNc4ncc(-c5ccncc5)c5c4CCO5)c3)ccc21 [Example 37, 1-methyl-N-(3-(((7-(pyridin-4-yl)-2,3-dihydrofuro[3,2-c]pyridin-4-yl)amino)methyl)phenyl)-1H-indazole-5-carboxamide] | ≤ 3 | ≤ 3 | – | – | –

Continued, values first:

Row | Ki (ROCK1 [1]) [nM] | Ki (ROCK2 [2]) [nM] | Ki (ROCK1 [3]) [nM] | Ki (ROCK2 [4]) [nM] | Ratio (PKA/ROCK2) (PKA) | Compound
11 | ≤ 3 | ≤ 3 | – | – | – | O=C(Nc1cccc(CNc2ncc(-c3ccncc3)c3c2CCO3)c1)c1nc2c(s1)CN(C1COC1)CC2 [Example 38, 5-(oxetan-3-yl)-N-(3-(((7-(pyridin-4-yl)-2,3-dihydrofuro[3,2-c]pyridin-4-yl)amino)methyl)phenyl)-4,5,6,7-tetrahydrothiazolo[5,4-c]pyridine-2-carboxamide]
12 | ≤ 3 | ≤ 3 | – | – | – | CN(C)CCn1ccc2cc(C(=O)Nc3cccc(CNc4ncc(-c5ccncc5)c5c4CCO5)c3)ccc21 [Example 39, 1-(2-(dimethylamino)ethyl)-N-(3-(((7-(pyridin-4-yl)-2,3-dihydrofuro[3,2-c]pyridin-4-yl)amino)methyl)phenyl)-1H-indole-5-carboxamide]
13 | – | – | 3 to 30 | ≤ 3 | *** (ratio≥10) | CN(C)CCn1cc(C(=O)Nc2cccc(CNc3ncc(-c4ccncc4)c4c3CCO4)c2)cn1 [Example 41, 1-(2-(Dimethylamino)ethyl)-N-(3-(((7-(pyridin-4-yl)-2,3-dihydrofuro[3,2-c]pyridin-4-yl)amino)methyl)phenyl)-1H-pyrazole-4-carboxamide]
14 | – | – | ≤ 3 | ≤ 3 | *** (ratio≥10) | O=C(NCCC1CCN(C2COC2)CC1)c1cccc(CNc2ncc(-c3ccncc3)c3c2CCO3)c1 [Example 42, N-(2-(1-(Oxetan-3-yl)piperidin-4-yl)ethyl)-3-(((7-(pyridin-4-yl)-2,3-dihydrofuro[3,2-c]pyridin-4-yl)amino)methyl)benzamide]
15 | – | – | ≤ 3 | ≤ 3 | *** (ratio≥10) | CC(=O)N1CCC(CCNC(=O)c2cccc(CNc3ncc(-c4ccncc4)c4c3CCO4)c2)CC1 [Example 44, N-(2-(1-Acetylpiperidin-4-yl)ethyl)-3-(((7-(pyridin-4-yl)-2,3-dihydrofuro[3,2-c]pyridin-4-yl)amino)methyl)benzamide]
16 | – | – | 3 to 30 | 3 to 30 | *** (ratio≥10) | CNC(=O)c1cccc(CNc2ncc(-c3ccnc(N)c3F)c3c2CCO3)c1 [Example 46, 3-(((7-(2-Amino-3-fluoropyridin-4-yl)-2,3-dihydrofuro[3,2-c]pyridin-4-yl)amino)methyl)-N-methylbenzamide]
17 | – | – | ≤ 3 | ≤ 3 | *** (ratio≥10) | CN(C)CCOc1ccc(NC(=O)c2cccc(CNc3ncc(-c4ccncc4)c4c3CCO4)c2)nc1 [Example 56, N-(5-(2-(dimethylamino)ethoxy)pyridin-2-yl)-3-(((7-(pyridin-4-yl)-2,3-dihydrofuro[3,2-c]pyridin-4-yl)amino)methyl)benzamide]
18 | – | – | > 30 | > 30 | *** (ratio≥10) | CNC(=O)c1cccc(CNc2ncc(-c3cc[nH]c(=O)c3)c3c2CCO3)c1 [Example B, N-methyl-3-(((7-(2-oxo-1,2-dihydropyridin-4-yl)-2,3-dihydrofuro[3,2-c]pyridin-4-yl)amino)methyl)benzamide, reference compound]
19 | – | – | > 30 | > 30 | *** (ratio≥10) | CNC(=O)c1cccc(CNc2ncc(-c3ccncc3)c3c2OCC3)c1 [Example C, N-methyl-3-(((4-(pyridin-4-yl)-2,3-dihydrofuro[2,3-c]pyridin-7-yl)amino)methyl)benzamide, reference compound]
